{"source": "patent US20260118345A1", "about": "“METHOD OF EVALUATING INTERCELLULAR INTERACTIONS IN NEUROINFLAMMATION” (FUJIFILM Corporation, priority 2023, published 2026)", "assay_type_in_all_cases": "cell-based, human", "key": {"STAT1 [1]": {"tested_on": "STAT1", "test": "STAT1 localization by immunostaining after LPS stimulation, three-cell-type co-culture of neurons, astrocytes and microglia", "conditions": "LPS 100 ng/mL", "protocol": "Microglia were specifically stimulated by adding LPS (FUJIFILM Wako Pure Chemical Corporation, 124-05151) at 100 ng/mL to the two-dimensional co-culture that had been cultured for 4 weeks. The cells were fixed by treating, for 30 minutes, with a formaldehyde solution (FUJIFILM Wako Pure Chemical Corporation, 061-00416) diluted 10-fold with PBS(−) (FUJIFILM Wako Pure Chemical Corporation, 166-23555) without treatment, and at 0.5 hours, 1 hour, 3 hours, 6 hours, and 24 hours after the treatment. […]\nThe next day, the cells were washed with PBS (−), then as a secondary antibody reaction, treated with Donkey anti-goat Alexa Fluor (registered trademark) 488 (Thermo Fisher Scientific, A11055) diluted 1000-fold, Donkey anti-rabbit Alexa Fluor (registered trademark) 594 (Thermo Fisher Scientific, A32754) diluted 1000-fold, and Hoechst (registered trademark) 33342 (Dojindo, 346-07951) diluted 1000-fold as a secondary antibody reaction, and allowed to stand at room temperature for 60 minutes. After washing with PBS (−), the cells were imaged with a fluorescence microscope (Nikon, ECLIPSE Ti) to acquire an image. […]"}, "NF-κB [2]": {"tested_on": "NF-κB", "test": "NF-κB localization by immunostaining after LPS stimulation, two-dimensional three-cell-type co-culture of astrocytes, neurons and microglia", "conditions": "LPS 100 ng/mL, no R-7050", "protocol": "Matrigel basement membrane matrix (Corning, 356234) diluted 120-fold with DMEM/F12 (Life technologies, 11320-033) was added to a 96-well plate at 65 μL/well and allowed to stand at 4° C. After 24 hours, the culture medium was replaced with a progenitor cell culture medium and used.\nAstrocyte precursor cells (XCell Science, XCS-AP-001-1V) were seeded in a 96-well plate at a density of 5×10^4 cells/well and cultured under the conditions of 37° C. and 5% CO2. The next day, the culture medium was replaced with the differentiation-inducing culture medium and further cultured for 5 days to differentiate into astrocytes.\nThe neurons were produced by forcing expression of the Ngn2 gene from iPS cells (WO2014/148646A; and Zhang Y, et al., Neuron, 78:785-98, 2013), and the cells that had been frozen and stored were used. The cells that had been frozen and stored were thawed in a warm bath at 37° C., and after thawing, the cells were added to the co-culture medium and centrifuged at 600×g at room temperature for 5 minutes. After centrifugation, the supernatant was removed, the cells were suspended in 1 mL of the co-culture medium, and the number of cells was counted.\nAs the microglia, iPS cell-derived microglia (iCell (registered trademark) Microglia, FCDI, C1110) were used. The cells that had been frozen and stored were thawed in a warm bath at 37° C., and after thawing, the cells were added to the co-culture medium and centrifuged at 600×g at room temperature for 5 minutes. After centrifugation, the supernatant was removed, the cells were suspended in 1 mL of the co-culture medium, and the number of cells was counted.\nThe neurons and the microglia were mixed in a ratio of 3:1 and seeded on the astrocytes at 4×10^4 cells/well. The cells were cultured under the conditions of 37° C. and 5% CO2, and half of the culture medium was replaced three times a week.\nMicroglia were specifically stimulated by adding LPS (FUJIFILM Wako Pure Chemical Corporation, 124-05151) at 100 ng/mL to the two-dimensional co-culture that had been cultured for 4 weeks. The cells were fixed by treating, for 30 minutes, with a formaldehyde solution (FUJIFILM Wako Pure Chemical Corporation, 061-00416) diluted 10-fold with PBS(−) (FUJIFILM Wako Pure Chemical Corporation, 166-23555) without treatment, and at 0.5 hours, 1 hour, 3 hours, 6 hours, and 24 hours after the treatment.\nIn addition, in the two-dimensional co-culture that had been cultured for 19 days, LPS (FUJIFILM Wako Pure Chemical Corporation, 124-05151) was added at 100 ng/ml and R-7050 (Cayman Chemical Company, 16870), which is a TNFR1 inhibitor, was added at 10 μmol/L, and the effect of TNF-α on the intercellular interaction induced by LPS stimulation was evaluated. The cells were fixed by treating, for 30 minutes, with a formaldehyde solution (FUJIFILM Wako Pure Chemical Corporation, 061-00416) diluted 10-fold with PBS (−) (FUJIFILM Wako Pure Chemical Corporation, 166-23555) without treatment, and at 0.5 hours, 1 hour, 3 hours, 6 hours, and 24 hours after the treatment.\nThe fixed cells were washed with PBS (−), and blocking and permeabilization were performed by treating with a solution (1% BSA/0.2% Triton X-100) in which BSA (Sigma-Aldrich, A4161) and Triton (registered trademark) X-100 (BioVision, 2104-100) were diluted to 1% and 0.2% with PBS (−) for 30 minutes. […]"}, "STAT1 [3]": {"tested_on": "STAT1", "test": "STAT1 localization after LPS stimulation, two-cell-type co-culture of nerve and astrocytes", "conditions": "co-culture without microglia, all time points"}, "NF-κB [4]": {"tested_on": "NF-κB", "test": "NF-κB localization after LPS stimulation, two-cell-type co-culture of nerve and astrocytes", "conditions": "co-culture without microglia, all time points"}}}
{"substance": "lipopolysaccharide [LPS]", "values": [{"measurement": "STAT1 localized in the nucleus", "setting": "STAT1 [1]; 1 hour and 3 hours after the LPS stimulation", "result": "some cells"}, {"measurement": "STAT1 localized in the nucleus", "setting": "STAT1 [1]; 6 hours after the stimulation", "result": "many cells"}, {"measurement": "nuclear translocation of NF-κB", "setting": "NF-κB [2]; 0.5 hours and 1 hours after the LPS treatment", "result": "only some cells"}, {"measurement": "nuclear translocation of NF-κB", "setting": "NF-κB [2]; 3 hours and 6 hours after the LPS treatment", "result": "many cells"}, {"measurement": "nuclear translocation of STAT1", "setting": "STAT1 [3]", "result": "not observed at any time"}, {"measurement": "nuclear translocation of NF-κB", "setting": "NF-κB [4]", "result": "not observed at any time"}]}
